According to PubChem BioAssay AID2060496 (Molecular Pharmacology Branch, DTP, NCI, 2025):

System: 276233-004-R-J1-PDC complex spheroid viability
Assay: Anticancer human tumor 276233-004-R-J1-PDC patient-derived colon adenocarcinoma cell line growth inhibition [GQUAD]
Details: for IC50: curve of first compound; for viability, T/C: stronger effect = lower value
Excerpt: DNA G-quadruplex Stabilizer Agents in Combinations in Complex Spheroids
A high-throughput screen of multi-cell type tumor spheroids was designed to identify active combinations of DNA G-quadruplex stabilizer agents and targeted small molecules. Complex spheroids include a stromal component modeled by human endothelial cells (HUVEC) and fibroblasts modeled by human mesenchymal stem cells (MSCs). The concentration ranges selected for each drug and investigational agent were based upon clinically achievable concentrations if the clinical Cmax of the agent was known.
Compounds. The drugs and investigational agents: pidnarulex (CX-5461; NSC782164), APTO-253 (NSC789042), BRACO-19 (NSC847499), peposertib (NSC802822), ceralasertib (NSC780249), elimusertib (NSC800525), camonsertib (NSC841442), AZD-1390 (NSC803789), olaparib (NSC753686), talazoparib (NSC767125), ART-558 (NSC835418), sotorasib (NSC818433), MRTX-1133 (NSC836407), SN-38 (NSC673596), topotecan (NSC609699), etoposide (NSC141540), doxorubicin (NSC123127), gemcitabine (NSC613327), 5-fluorouracil (NSC19893), paclitaxel (NSC125973), vemurafenib (NSC761431), panobinostat (NSC761190), R-306465 (JNJ-16241199; NSC773264), adavosertib (NSC754352), TP-3654 (NSC805149), carboplatin (NSC241240), KSQ-4279 (NSC840948), and staurosporine (NSC755774) were obtained from the National Cancer Institute (NCI) Developmental Therapeutics Program Chemical Repository (34). The FDA-approved anticancer drug set is available from the NCI Developmental Therapeutics Program. […] The stock solutions were prepared in dimethyl sulfoxide (DMSO, Sigma-Aldrich, St. Louis, MO, cat. D2650) at 800-fold the tested concentration and stored at -70 degrees C prior to their use. All drugs and investigational agents were tested over a range starting from a high concentration at or near the clinical Cmax and decreasing in half-log increments. If the clinical Cmax for an agent had not been determined, the highest concentration tested was 10 microM.
2.3 Cell Culture. All cells were maintained in an incubator at 37 degrees C and 5% CO2 with 95% humidity. The PDC lines were cultured according to standard operating procedures established by the NCI PDMR. All PDCs were thawed and cultured in Matrigel-coated flasks prepared with a working solution of 1X Ham's F-12 nutrient mix, without supplementation (Invitrogen, cat. 11765054), 100 U/mL penicillin-streptomycin (Invitrogen, cat. 15140122), and 2.5% Matrigel (Corning Inc., cat. 354248) for the first three passages. The 857933-349-R-J2-PDC line was cultured in 6C/Colon 1B media, which includes advanced DMEM/F-12 (Thermo Fisher Scientific, cat. 12634028), 10 mM HEPES (Thermo Fisher Scientific, cat. 15630080), 1X GlutaMAX supplement (Thermo Fisher Scientific, cat. 35050061), 0.1 mg/mL primocin (InvivoGen, cat. ant-pm-2), 10% defined fetal bovine serum, heat inactivated (HyClone Laboratories Inc., cat. SH30070.03HI), 50% L-WRN conditioned media (ATCC, cat. CRL-3276), 1.25 mM N-Acetyl-L-cysteine (Sigma-Aldrich, cat. A9165), 10 mM nicotinamide (Sigma-Aldrich, cat. N0636), 1X B-27 supplement (Thermo Fisher Scientific, cat. 17504044), 1X N-2 supplement (Thermo Fisher Scientific, cat. 17502048), 10 microM Y-27632 dihydrochloride (Tocris Bioscience, cat. 1254), and 50 ng/mL human EGF recombinant protein (Thermo Fisher Scientific, cat. PHG0311). The 485176-168-R4-J1-PDC line was cultured in Panc media, which includes all 6C/Colon 1B media components plus 100 ng/mL human FGF-10 (Thermo Fisher Scientific, cat. 100-26), 500 nM SB-431542 (Selleckchem, cat. S1067), and gastrin (Tocris, cat. 3006).
[…]

[1] = second compound 0.0316 µM, first compound 0.0316 µM
[2] = second compound 0.0316 µM, first compound 0.1 µM
[3] = second compound 0.0316 µM, first compound 0.316 µM
[4] = second compound 0.0316 µM, first compound 1 µM
[5] = second compound 0.0316 µM, first compound 3.16 µM
[6] = second compound 0.0316 µM, first compound 10 µM
[7] = second compound 0.1 µM, first compound 0.0316 µM
[8] = second compound 0.1 µM, first compound 0.1 µM
[9] = second compound 0.1 µM, first compound 0.316 µM
[10] = second compound 0.1 µM, first compound 1 µM
[11] = second compound 0.1 µM, first compound 3.16 µM
[12] = second compound 0.1 µM, first compound 10 µM
[13] = second compound 0.316 µM, first compound 0.0316 µM
[14] = second compound 0.316 µM, first compound 0.1 µM
[15] = second compound 0.316 µM, first compound 0.316 µM
[16] = second compound 0.316 µM, first compound 1 µM
[17] = second compound 0.316 µM, first compound 3.16 µM
[18] = second compound 0.316 µM, first compound 10 µM
[19] = second compound 1 µM, first compound 0.0316 µM
[20] = second compound 1 µM, first compound 0.1 µM
[21] = second compound 1 µM, first compound 0.316 µM
[22] = second compound 1 µM, first compound 1 µM
[23] = second compound 1 µM, first compound 3.16 µM
[24] = second compound 1 µM, first compound 10 µM
[25] = second compound 3.16 µM, first compound 0.0316 µM
[26] = second compound 3.16 µM, first compound 0.1 µM
[27] = second compound 3.16 µM, first compound 0.316 µM
[28] = second compound 3.16 µM, first compound 1 µM
[29] = second compound 3.16 µM, first compound 3.16 µM
[30] = second compound 3.16 µM, first compound 10 µM
[31] = second compound 10 µM, first compound 0.0316 µM
[32] = second compound 10 µM, first compound 0.1 µM
[33] = second compound 10 µM, first compound 0.316 µM
[34] = second compound 10 µM, first compound 1 µM
[35] = second compound 10 µM, first compound 3.16 µM
[36] = second compound 10 µM, first compound 10 µM
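Further: spheroids exposed to drugs for seven days.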
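Wherever viability, T/C is given: 100% = DMSO vehicle control viability.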

Nc1ccn(C2OC(CO)C(O)C2(F)F)c(=O)n1 (stereo unspecified) + Cc1cnc(CNC(=O)c2c(=O)c3ccc(N4CCCN(C)CC4)nc3n3c2sc2ccccc23)cn1
IC50 (second compound 0.0316 µM): > 10000 nM
IC50 (second compound 0.1 µM): > 10000 nM
IC50 (second compound 0.316 µM): > 10000 nM
IC50 (second compound 1 µM): > 10000 nM
IC50 (second compound 3.16 µM): > 10000 nM
IC50 (second compound 10 µM): > 10000 nM
viability, T/C [1]: 82.7%
viability, T/C [2]: 77.7%
viability, T/C [3]: 83.8%
viability, T/C [4]: 81.1%
viability, T/C [5]: 88.4%
viability, T/C [6]: 72.6%
viability, T/C [7]: 89.8%
viability, T/C [8]: 87.9%
viability, T/C [9]: 80.7%
viability, T/C [10]: 93.3%
viability, T/C [11]: 84.4%
viability, T/C [12]: 79.9%
viability, T/C [13]: 80%
viability, T/C [14]: 97.9%
viability, T/C [15]: 86.6%
viability, T/C [16]: 80.4%
viability, T/C [17]: 77%
viability, T/C [18]: 76.7%
viability, T/C [19]: 94.2%
viability, T/C [20]: 78.8%
viability, T/C [21]: 105%
viability, T/C [22]: 83.8%
viability, T/C [23]: 82.5%
viability, T/C [24]: 79.9%
viability, T/C [25]: 80%
viability, T/C [26]: 68%
viability, T/C [27]: 91.8%
viability, T/C [28]: 73.2%
viability, T/C [29]: 66.3%
viability, T/C [30]: 62.3%
viability, T/C [31]: 65.8%
viability, T/C [32]: 75.2%
viability, T/C [33]: 69.5%
viability, T/C [34]: 78.2%
viability, T/C [35]: 65.2%
viability, T/C [36]: 57.5%

O=C(NO)c1cnc(N2CCN(S(=O)(=O)c3ccc4ccccc4c3)CC2)nc1 + Cc1cnc(CNC(=O)c2c(=O)c3ccc(N4CCCN(C)CC4)nc3n3c2sc2ccccc23)cn1
IC50 (second compound 0.0316 µM): 456 nM
IC50 (second compound 0.1 µM): 284 nM
IC50 (second compound 0.316 µM): 281 nM
IC50 (second compound 1 µM): 195 nM
IC50 (second compound 3.16 µM): 146 nM
IC50 (second compound 10 µM): 112 nM
viability, T/C [1]: 102%
viability, T/C [2]: 86.2%
viability, T/C [3]: 69%
viability, T/C [4]: 10.2%
viability, T/C [5]: 5.35%
viability, T/C [6]: 4.15%
viability, T/C [7]: 93.9%
viability, T/C [8]: 94.6%
viability, T/C [9]: 44.4%
viability, T/C [10]: 13.8%
viability, T/C [11]: 5.07%
viability, T/C [12]: 3.5%
viability, T/C [13]: 84.6%
viability, T/C [14]: 85.2%
viability, T/C [15]: 46%
viability, T/C [16]: 6.38%
viability, T/C [17]: 5.3%
viability, T/C [18]: 5.47%
viability, T/C [19]: 67.8%
viability, T/C [20]: 86%
viability, T/C [21]: 30.5%
viability, T/C [22]: 6.13%
viability, T/C [23]: 4.71%
viability, T/C [24]: 4.58%
viability, T/C [25]: 72.2%
viability, T/C [26]: 63.9%
viability, T/C [27]: 21.5%
viability, T/C [28]: 5.71%
viability, T/C [29]: 5.15%
viability, T/C [30]: 5.15%
viability, T/C [31]: 71.6%
viability, T/C [32]: 54.2%
viability, T/C [33]: 11.4%
viability, T/C [34]: 5.41%
viability, T/C [35]: 4.71%
viability, T/C [36]: 3.76%

CC(C)(O)C1CCC(Nc2ccc3ncc(-c4cccc(C(F)(F)F)c4)n3n2)CC1 (stereo unspecified) + CN(C)c1ccc(Nc2c3ccc(NC(=O)CCN4CCCC4)cc3nc3cc(NC(=O)CCN4CCCC4)ccc23)cc1
IC50 (second compound 0.0316 µM): > 10000 nM
IC50 (second compound 0.1 µM): 2550 nM
IC50 (second compound 0.316 µM): > 10000 nM
IC50 (second compound 1 µM): 1060 nM
IC50 (second compound 3.16 µM): 101 nM
IC50 (second compound 10 µM): < 31.6 nM
viability, T/C [1]: 90.4%
viability, T/C [2]: 84.4%
viability, T/C [3]: 55.8%
viability, T/C [4]: 84%
viability, T/C [5]: 48.6%
viability, T/C [6]: 57%
viability, T/C [7]: 82.6%
viability, T/C [8]: 69.2%
viability, T/C [9]: 62.7%
viability, T/C [10]: 57.4%
viability, T/C [11]: 45.2%
viability, T/C [12]: 46%
viability, T/C [13]: 55.9%
viability, T/C [14]: 55.4%
viability, T/C [15]: 50.2%
viability, T/C [16]: 57.1%
viability, T/C [17]: 55%
viability, T/C [18]: 46.6%
viability, T/C [19]: 75%
viability, T/C [20]: 56.3%
viability, T/C [21]: 54.4%
viability, T/C [22]: 56.3%
viability, T/C [23]: 50.2%
viability, T/C [24]: 41%
viability, T/C [25]: 67.5%
viability, T/C [26]: 45.4%
viability, T/C [27]: 51.3%
viability, T/C [28]: 39%
viability, T/C [29]: 46.8%
viability, T/C [30]: 34%
viability, T/C [31]: 46.3%
viability, T/C [32]: 43.4%
viability, T/C [33]: 41.8%
viability, T/C [34]: 35.5%
viability, T/C [35]: 41%
viability, T/C [36]: 22.4%
